row,melting point,Structure (SMILES)
1,194 to 195 °C,Cc1cc(C)c(S(=O)(=O)N[C@@H](CNC(=O)c2ccc3c(cnn3CCc3cc(=O)[nH]c(N)n3)c2)C(=O)O)c(C)c1
2,68 to 72 °C,O=C(c1ccccc1)C1CCN(CCS(=O)c2ccc3[nH]c(=O)oc3c2)CC1 (stereo not given)
3,161 to 162 °C,Cn1cc(-c2cc3cccnc3[nH]2)c2cc(C(=O)NC(C)(C)CO)ccc21
4,159 to 161 °C,CN(C)CCOc1cc2c(Nc3ccc(Oc4ccccc4)cc3)c(C#N)cnc2cn1
5,165 to 168 °C,COCCNc1nc(-n2ccnc2)nc2ccc(CO)cc12
6,152 to 154 °C,COC(=O)COc1ccc(-c2c3ccccc3cc3sc4cc(OCC(=O)OC)ccc4c23)cc1
7,185 to 187 °C,O=C(Nc1c(Cl)cccc1Cl)C1c2ccccc2COc2ccc(Br)cc21 (stereo not given)
8,219 °C,CCS(=O)(=O)c1ccc(-c2cc(-c3nc(N)sc3-c3cccc(C)n3)ccn2)cc1
9,171 °C,CCC(C(O)c1ccc(Cl)cc1)n1ncn(-c2ccc(N3CCN(c4ccccn4)CC3)nc2)c1=O (stereo not given)
10,69 to 71 °C,CC(=O)NCC1CN(c2ccc(N3CCN(C(=O)COC(=O)CCCN(C)C)CC3)c(F)c2)C(=O)O1 (stereo not given)
11,130 to 134 °C,O=C(O)c1ccc(Cc2ccccc2)[nH]1
12,40 to 42 °C,Clc1nc(-c2ccccc2)no1
13,274 to 275 °C,N#Cc1ccc2c(c1)C(=O)c1cc(N3CCCCC3)ccc1C2=O
14,137 to 139 °C,O=C1N(Cc2nnc(C(F)(F)F)o2)c2ccccc2C12COc1cc3c(cc12)OCCO3 (stereo not given)
15,108 to 109 °C,CN(C)c1cc(Oc2cccc(C(F)(F)F)c2)nc(C(=O)NN=CC(F)(F)C(F)(F)F)c1
16,60 to 62 °C,CCN1c2ncccc2C(=O)N(C)c2ccc(-c3cnn(CC)c3)nc21
17,174 to 176 °C,O=C(C#Cc1ccccc1)Nc1nc2ccccc2s1
18,138 to 139 °C,COc1cnc(NS(=O)(=O)c2cccc(Cl)c2Cl)c(OC)n1
19,172 to 174 °C,FC(F)(F)c1ccc(C2CNCc3[nH]c4ccccc4c32)cc1 (stereo not given)
20,109 to 110 °C,Cc1cc(C)c2c(c1C)OC(C)(C)C2c1ccc(F)cc1 (stereo not given)
21,187 to 192 °C,COCCS(=O)(=O)c1ccccc1S(=O)(=O)NC(=O)Nc1nc(OC)cc(OC)n1

row,melting point,Structure (SMILES)
1,205 to 208 °C,Nc1ccnc(N2CCN(c3nc4cccccc-4n3)CC2)n1
2,134 to 139 °C,CCOC(=O)C1=C(C)NC(c2scnc2C)=NC1c1ccc(F)cc1Cl (stereo not given)
3,142 to 144 °C,CC(C)C[C@H](NC(=O)OCc1ccccc1)C(=O)N[C@@H](Cc1ccccc1)C(=O)CS(C)(=O)=O
4,239 °C,Cc1ccccc1-c1cc2cnc(N)nc2n(C)c1=O
5,170 °C,COc1ccc(NC(=NC#N)N2CCn3c(c(C(N)=O)c(Cl)c3-c3ccccc3)C2)cc1
6,123 °C,Cc1ccc(S(=O)(=O)N2[C@H](CCCNS(C)(=O)=O)CC[C@@H]2c2ccc(F)cc2)cc1 (racemic)
7,166 to 168 °C,CN(C)c1ncc(-c2cccc(Nc3ccc(-n4cccc4)cc3[N+](=O)[O-])c2)cn1
8,106 to 108 °C,Cc1ccccc1OCCC1CCN(c2cc(Cl)nnc2Cl)CC1
9,175 to 180 °C,CCCCOc1ccc2cc(C(=O)O)ccc2c1
10,240 °C,O=C(O)c1ccccc1Sc1ccc(Cl)cc1
11,194 to 196 °C,CCCNc1cc(Nc2ccc(OC)cc2)ncn1
12,189 to 191 °C,Cc1cc(Nc2ncnc3ccn(CCNC(=O)C(C)(C)C)c23)ccc1Oc1cccc2sncc12
13,230 to 233 °C,CC(C)Oc1cccc(-n2c(NC(=O)Nc3ccc(Br)cc3)nc3ccccc3c2=O)c1
14,178 °C,CS(=O)(=O)c1ccc(-c2ccccc2[N+](=O)[O-])cc1
15,98 °C,COc1cc(Nc2ncc(C#N)c(-c3ccccc3)n2)cc(OC)c1OC
16,225 to 226 °C,Cc1ccc(-c2nccc(-c3cccc(C(=O)O)c3)n2)cc1
17,73 to 74 °C,COCn1ncc2cc(C(=O)OC)ccc21
18,120 to 122 °C,COc1cc(Oc2cccc(C(F)(F)F)c2)nc(C(=O)NO)c1
19,70 °C,Cn1nc(CNC(=O)c2ccccc2)nc1NCCCOc1cccc(CN2CCCCC2)c1
20,189 to 190 °C,CSc1nccc(Oc2ccc(NC(=O)c3cc(F)cc(N4CCOCC4)c3)c3ccccc23)n1
21,70 to 72 °C,Cc1cnnc2ccccc12

row,melting point,Structure (SMILES)
1,61 to 63 °C,CCOC(=O)CCCOc1cccc(C=Cc2ccc3ccc(Br)cc3n2)c1
2,110 to 117 °C,COc1ccc(/C=C/c2cc(/C=C/c3ccc4cc[nH]c4c3)n[nH]2)cc1OCc1ccccn1
3,87 to 88 °C,CCOCCc1ccc(OCCN(C(=O)n2ccnc2)c2ncnc(C)c2Cl)c(C)c1
4,192 °C,COc1cccc(-c2nc(N)c(C#N)nc2-c2ccc(=O)n(C(C)C)c2)c1
5,189 to 192 °C,COc1ccc(Nc2nc(OCC3CCCCC3)c3[nH]cnc3n2)cc1
6,58 to 60 °C,CC(=O)c1ccc2c(c1)CCc1ccccc1-2
7,167 to 169 °C,O=C1C(Cl)=CC(=NS(=O)(=O)c2cccs2)c2ccccc21
8,200 °C,COC(C)=CC(=O)Nc1cccc(OC(=O)NC2CCCCC2)c1
9,161 to 162 °C,COCCOCCn1cc(C(=O)NCc2ccc(Cl)cc2)c(=O)c2cc(CO)ccc21
10,80 °C,CC(=O)CC(=O)Nc1cccc(OCc2ccccc2)c1
11,153 to 155 °C,CC(C)C(NS(=O)(=O)c1ccc(-c2cccc(CNC(=O)c3nc4ccccc4c(=O)[nH]3)c2)cc1)C(=O)NO (stereo not given)
12,97 to 99 °C,CC(O)(CCN1CCOCC1)c1ccc(-c2ccc(Br)cc2)cc1 (stereo not given)
13,100 to 101 °C,O=Cc1cccnc1S(=O)(=O)c1ccc(Cl)cc1
14,79 to 81 °C,CCCCCCCCCCCCOC(=O)c1ccc2oc3ccccc3c(=O)c2c1
15,205 °C,COc1ccc(Cl)c(Oc2c(CCl)nc(N3CCOCC3)nc2NS(=O)(=O)c2ccc(C(C)C)cn2)c1
16,127 °C,COc1cc2c(cc1C#Cc1ccc(C)cc1)C(C)(C)CCC2(C)C
17,123 to 124 °C,CN1CCC2(CC1)OC(c1ccccc1)c1ccccc12 (stereo not given)
18,135 to 136 °C,O=C(Cc1ccc(Cl)cc1)c1cccc(S(=O)(=O)N2CCCCCC2)c1
19,236 to 238 °C,O=C1c2ccccc2-c2c1cccc2-c1nc2ccncc2[nH]1

# Further lines, the compound ahead of its results:
row,Structure (SMILES),melting point
1,O=C(O)CCCN1C(=O)c2ccc(C(=O)O)cc2C1=O,218 to 220 °C
2,CC(C)(C)C(=O)Nc1nc(O)c2cc(C#C[Si](C)(C)C)cnc2n1,> 250 °C
3,CN(CCCCc1ccccc1)CCCc1ccccc1,81 to 83 °C
4,O=c1[nH]ncc2cc(Br)ccc12,280 to 283 °C
5,COc1cc(Br)c(OC)c(CC(=O)O)c1,62 to 65 °C
6,COC1=CC2=CCC3C(=CCC4(C)C(=O)CCC34)C2(C)CC1 (stereo not given),153 °C
7,O=C(NCC12CC3CC(CC(C3)C1)C2)c1cc(CCCNCCCO)ncc1Cl,84 to 85 °C
8,CCOC(=O)C(=O)Nc1cc(NC=O)ccc1O,> 300 °C
9,NOCC=Cc1ccc(Br)cc1,35 to 38 °C
10,CC(C)(C)CN1C(=O)C2CC(c3ccc(N)cc3)(C2)C1=O,142 to 143 °C
11,NC(=O)c1c(Cl)ccc([N+](=O)[O-])c1Cl,163 to 165 °C
12,COC(=O)Nc1c(C/C=C(\C)CCC(=O)O)c(OC)c(C)c2c1C(=O)OC2,155 to 158 °C
13,Nc1nc(/C(=N/OC23CC4CC(CC(C4)C2)C3)C(=O)O)cs1,203 to 204 °C
14,Cc1ccc(OC2SCC(O)C(O)C2O)cn1 (stereo not given),233 °C
15,COc1ccc(C(Cl)C(C)(C)[N+](=O)[O-])cc1 (stereo not given),40 to 41 °C
16,CC(C)CNc1c([N+](=O)[O-])c2nnnn2c2cnccc12,173 to 174 °C
17,CCCCCCCCCCCCCCCCCC[C@@H]1OC(=O)C(O)=C1O,110 to 112 °C
18,COc1cccc2nc(C)n(C3CCC(=O)NC3=O)c(=O)c12 (stereo not given),274 to 276 °C
19,CC1(C)CC(=O)C2=C(C1)NC1=C(C(=O)CC(C)(C)C1)C2c1cc(Cl)cc(Cl)c1,288 to 290 °C
20,CCCCCCCCCCCc1ncc(C(=O)O)s1,93 °C
21,Cc1cc(N)c(C)c2c1OC(C)(C)C2=O,124 to 126 °C
22,CCn1c(=O)c2[nH]c(/C=C/c3cc(C)ccc3C)nc2n(CC)c1=O,282 °C

row,Structure (SMILES),melting point
1,CC(C)(C)OC(=O)N[C@H]1C(=O)N[C@H]1CO (relative stereo),128 to 131 °C
2,CCOC(=O)c1cc(=O)c2cc(C(C)(C)C)cc(C(C)(C)C)c2o1,130 to 132 °C
3,CC(C)(CC(N)=O)C(Br)(Br)Br,109 to 111 °C
4,COC(=O)c1nc(C2CC2)nc(N)c1Cl,147 to 148 °C
5,C#CCCCCOc1ccc(C=O)cc1OC,67 to 68 °C
6,Cc1c(N)c([N+](=O)[O-])cc(F)c1F,87.2 to 88 °C
7,CC(Cn1ccnc1)Cn1c(=O)c2ccc(Cl)cc2n(C)c1=O (stereo not given),206 to 209 °C
8,CC1NC(C#N)=C(C#N)NC1=O (stereo not given),243 to 245 °C
9,N=C(N)c1ccc(C(=O)NCCCC(=O)NCCC(=O)O)cc1,> 250 °C
10,CNCC(O)COc1ccccc1 (stereo not given),74 to 77 °C
11,CCSC1(SCC)C(=O)CC2C3CCC4=CC(=O)C=CC4(C)C3(F)C(O)CC21C (stereo not given),268 to 270 °C
12,Cc1onc(-c2ccc(C(F)(F)F)cc2)c1CO,72 to 73 °C
13,CC(=O)Nc1cscc1C(=O)O,206 °C
14,CCCCCCCCOC(=O)c1ccc(C(=O)O)cc1,113 °C
15,CCOC(=O)Cc1sc(SCc2ccc(C(=O)OC)s2)nc1C,49 to 51 °C
16,C1=Nc2ccccc2OC1,126 to 129 °C
17,C#CC(C)(O)C1CCC2C3CC=C4CC(F)CCC4(C)C3CCC21C (stereo not given),213 to 214 °C
18,Cc1noc(C(=O)NCCc2ccc(S(N)(=O)=O)cc2)n1,218 to 220 °C
19,COc1ccc2c(c1)CCN1C(=O)C3=C(CC21)NCCC3 (stereo not given),202 to 205 °C
20,N#Cc1ncnc2[nH]ccc12,237 to 238 °C
21,O=[N+]([O-])c1cc(O)c(O)c([N+](=O)[O-])c1,168 to 170 °C
22,O=[N+]([O-])c1ccc(C=[N+]([O-])c2cccc(CO)c2)o1,187 to 188 °C
